Measured values as given in patent US20260008862A1, “Bispecific Anti-BCMA x Anti-CD3 Antibodies and Uses Thereof” (Regeneron Pharmaceuticals, Inc., priority 2018, published 2026).

Tests used:
[1] = tested on: Jurkat/NFATLuc.3C7 cells + MM1-S cells; assay: Jurkat/NFATLuc reporter bioassay with MM1-S cells; assay type: cell-based; conditions: highest RLU / lowest RLU
Experimental: Activity of the anti-BCMA×anti-CD3 bispecific antibodies were assessed in a Jurkat/NFATLuc reporter bioassay utilizing several cell lines with varying levels of BCMA surface expression. The Jurkat cells were engineered to express an NFAT-luciferase reporter (Jurkat/NFATLuc.3C7), and 50,000 Jurkat reporter cells were combined with 50,000 BCMA positive (Daudi, MM1-S, NCI-H929, OPM-2, RPMI-8226, MOLP-8, or Raji) or BCMA negative (HEK293) cells in Thermo Nunclon delta 96 well white microwell plates (Thermo Scientific, Cat #136102) in 50 ul of assay media (RPMI media with 10% FBS and 1% P/S/G). Three-fold serial dilutions of the BCMA×CD3 bispecific antibodies (mAb25441 D or mAb25442D), or a bivalent anti-BCMA antibody (mAb21581) were immediately added in 50 μL of assay buffer. The plates were gently agitated and incubated in a 37° C., 5% CO2 incubator for 4-6 hours. NFAT-Luciferase activity was determined using Promega One-Glo (Cat #E6130) and a Perkin Elmer Envision plate reader. RLU were plotted in GraphPad Prism using a four-parameter logistic equation over a 12-point response curve to calculate EC50 values. […] The signal to noise (S:N) is determined by taking the ratio of the highest RLU on the curve to the lowest.

[2] = tested on: BCMA-expressing NCI-H929 tumors; assay: NCI-H929 + PBMC xenogenic tumor model, immediate treatment, dose response (Example 11); assay type: in vivo, mouse
Experimental: (§1) To determine the in vivo efficacy of anti-BCMA×anti-CD3 bispecific antibodies (Abs), a xenogenic tumor study was performed. Immunodeficient NOD.Cg-Prkdc^scidIl2rg^tm1Wji/SzJ (NSG) mice were subcutaneously implanted with a mixture of 10×10^6 BCMA-expressing NCI-H929 human multiple myeloma tumor cells and 0.5×10^6 human peripheral blood mononuclear cells (PBMC) isolated from a normal, healthy donor. […] The mice were administered these Abs twice per week for a total of seven doses, and tumor growth was assessed over 60 days. While BCMA^+ NCI-H929 tumors grew similarly in the vehicle- and CD3-binding control-treated mice, both anti-BCMA×anti-CD3 Abs that were tested prevented the growth of tumors in a dose-dependent manner in vivo.
Implantation and measurement of xenogenic tumors: NSG mice were subcutaneously implanted with a mixture of 10×10^6 BCMA-expressing NCI-H929 multiple myeloma cells and 0.5×10^6 PBMC derived from a normal, healthy donor. […] The mice were administered Abs twice per week for a total of seven doses. Tumor growth was measured with calipers twice per week for the duration of the experiment.
Calculation of xenogenic tumor growth and inhibition: In order to determine tumor volume by external caliper, the greatest longitudinal diameter (length in mm) and the greatest transverse diameter (width in mm) were determined. Tumor volumes based on caliper measurements were calculated by the formula: Volume (mm^3)=(length×width^2)/2.

[3] = tested on: established BCMA-expressing NCI-H929 tumors; assay: Established NCI-H929 + PBMC xenogenic tumor model, treatment from day 5 (Example 12); assay type: in vivo, mouse; conditions: for Average Tumor Size (mm3) ± SEM on Day 5: Day 5 (day of first dose)
Experimental: as §1, with “donor. The tumors were allowed to grow and establish for 5 days until they were approximately 70 mm^3 in size.” for “donor.”, “over 55” for “over 60”, “both BCMA×CD3” for “both anti-BCMA×anti-CD3”, “tested shrank established tumors and” for “tested”
Implantation and measurement of xenogenic tumors: NSG mice were subcutaneously implanted with a mixture of 10×10^6 BCMA-expressing NCI-H929 multiple myeloma cells and 0.5×10^6 PBMC derived from a normal, healthy donor. The tumors were allowed to grow and establish for 5 days until they were approximately 70 mm^3 in size. […] The mice were administered Abs twice per week for a total of seven doses. Tumor growth was measured with calipers twice per week for the duration of the experiment.
Calculation of xenogenic tumor growth and inhibition: In order to determine tumor volume by external caliper, the greatest longitudinal diameter (length in mm) and the greatest transverse diameter (width in mm) were determined. Tumor volumes based on caliper measurements were calculated by the formula: Volume (mm^3) […] (length×width^2)/2.

REGN5459: anti-BCMA×anti-CD3 bispecific antibody: BCMA HCVR of mAb21581 (SEQ 66), CD3 HCVR of mAb7221G20 (SEQ 98), common LCVR SEQ 82
S:N [1]: 120 | Average Tumor Size (mm3) ± SEM on Day 4 ([2]; 0.04 mg/kg): 33.0 ± 4.4 mm3 | Average Tumor Size (mm3) ± SEM on Day 7 ([2]; 0.04 mg/kg): 8.4 ± 4.0 mm3 | Average Tumor Size (mm3) ± SEM on Day 12 ([2]; 0.04 mg/kg): 0 ± 0 mm3 | Average Tumor Size (mm3) ± SEM on Day 19 ([2]; 0.04 mg/kg): 23.1 ± 23.1 mm3 | Average Tumor Size (mm3) ± SEM on Day 22 ([2]; 0.04 mg/kg): 69.5 ± 69.5 mm3 | Average Tumor Size (mm3) ± SEM on Day 26 ([2]; 0.04 mg/kg): 156.7 ± 156.7 mm3 | Average Tumor Size (mm3) ± SEM on Day 29 ([2]; 0.04 mg/kg): 226.6 ± 226.6 mm3 | Average Tumor Size (mm3) ± SEM on Day 4 ([2]; 0.4 mg/kg): 19.6 ± 4.4 mm3 | Average Tumor Size (mm3) ± SEM on Day 12 ([2]; 0.4 mg/kg): 0 ± 0 mm3 | Average Tumor Size (mm3) ± SEM on Day 15 ([2]; 0.4 mg/kg): 0 ± 0 mm3 | Average Tumor Size (mm3) ± SEM on Day 19 ([2]; 0.4 mg/kg): 0 ± 0 mm3 | Average Tumor Size (mm3) ± SEM on Day 22 ([2]; 0.4 mg/kg): 0 ± 0 mm3 | Average Tumor Size (mm3) ± SEM on Day 26 ([2]; 0.4 mg/kg): 0 ± 0 mm3 | Average Tumor Size (mm3) ± SEM on Day 29 ([2]; 0.4 mg/kg): 0 ± 0 mm3 | Average Tumor Size (mm3) ± SEM on Day 34 ([2]; 0.4 mg/kg): 0 ± 0 mm3 | Average Tumor Size (mm3) ± SEM on Day 39 ([2]; 0.4 mg/kg): 0 ± 0 mm3 | Average Tumor Size (mm3) ± SEM on Day 42 ([2]; 0.4 mg/kg): 0 ± 0 mm3 | Average Tumor Size (mm3) ± SEM on Day 46 ([2]; 0.4 mg/kg): 0 ± 0 mm3 | Average Tumor Size (mm3) ± SEM on Day 55 ([2]; 0.4 mg/kg): 0 ± 0 mm3 | Average Tumor Size (mm3) ± SEM on Day 60 ([2]; 0.4 mg/kg): 0 ± 0 mm3 | Average Tumor Size (mm3) ± SEM on Day 4 ([2]; 4 mg/kg): 21.8 ± 3.4 mm3 | Average Tumor Size (mm3) ± SEM on Day 7 ([2]; 4 mg/kg): 8.0 ± 4.3 mm3 | Average Tumor Size (mm3) ± SEM on Day 12 ([2]; 4 mg/kg): 1.7 ± 1.7 mm3 | Average Tumor Size (mm3) ± SEM on Day 15 ([2]; 4 mg/kg): 0 ± 0 mm3 | Average Tumor Size (mm3) ± SEM on Day 19 ([2]; 4 mg/kg): 0 ± 0 mm3 | Average Tumor Size (mm3) ± SEM on Day 22 ([2]; 4 mg/kg): 0 ± 0 mm3 | Average Tumor Size (mm3) ± SEM on Day 26 ([2]; 4 mg/kg): 0 ± 0 mm3 | Average Tumor Size (mm3) ± SEM on Day 29 ([2]; 4 mg/kg): 0 ± 0 mm3 | Average Tumor Size (mm3) ± SEM on Day 34 ([2]; 4 mg/kg): 0 ± 0 mm3 | Average Tumor Size (mm3) ± SEM on Day 39 ([2]; 4 mg/kg): 0 ± 0 mm3 | Average Tumor Size (mm3) ± SEM on Day 42 ([2]; 4 mg/kg): 0 ± 0 mm3 | Average Tumor Size (mm3) ± SEM on Day 46 ([2]; 4 mg/kg): 0 ± 0 mm3 | Average Tumor Size (mm3) ± SEM on Day 55 ([2]; 4 mg/kg): 0 ± 0 mm3 | Average Tumor Size (mm3) ± SEM on Day 60 ([2]; 4 mg/kg): 0 ± 0 mm3 | Average Tumor Size (mm3) ± SEM on Day 5 ([3]; 0.04 mg/kg): 74.9 ± 6.4 mm3 | Average Tumor Size (mm3) ± SEM on Day 8 ([3]; 0.04 mg/kg): 152.3 ± 20.0 mm3 | Average Tumor Size (mm3) ± SEM on Day 12 ([3]; 0.04 mg/kg): 462.5 ± 57.7 mm3 | Average Tumor Size (mm3) ± SEM on Day 15 ([3]; 0.04 mg/kg): 1094.2 ± 78.9 mm3 | Average Tumor Size (mm3) ± SEM on Day 19 ([3]; 0.04 mg/kg): 2412.5 ± 184.6 mm3 | Average Tumor Size (mm3) ± SEM on Day 22 ([3]; 0.04 mg/kg): 3285.9 ± 227.3 mm3 | Average Tumor Size (mm3) ± SEM on Day 5 ([3]; 0.4 mg/kg): 69.5 ± 4.1 mm3 | Average Tumor Size (mm3) ± SEM on Day 8 ([3]; 0.4 mg/kg): 171.9 ± 23.2 mm3 | Average Tumor Size (mm3) ± SEM on Day 12 ([3]; 0.4 mg/kg): 233.8 ± 63.5 mm3 | Average Tumor Size (mm3) ± SEM on Day 15 ([3]; 0.4 mg/kg): 327.2 ± 135.6 mm3 | Average Tumor Size (mm3) ± SEM on Day 19 ([3]; 0.4 mg/kg): 606.2 ± 288.8 mm3 | Average Tumor Size (mm3) ± SEM on Day 22 ([3]; 0.4 mg/kg): 815.4 ± 387.1 mm3 | Average Tumor Size (mm3) ± SEM on Day 27 ([3]; 0.4 mg/kg): 1849.9 ± 903.1 mm3 | Average Tumor Size (mm3) ± SEM on Day 30 ([3]; 0.4 mg/kg): 661.8 ± 490.1 mm3 | Average Tumor Size (mm3) ± SEM on Day 35 ([3]; 0.4 mg/kg): 996.8 ± 771.0 mm3 | Average Tumor Size (mm3) ± SEM on Day 40 ([3]; 0.4 mg/kg): 375.6 ± 375.6 mm3 | Average Tumor Size (mm3) ± SEM on Day 55 ([3]; 0.4 mg/kg): 0 ± 0 mm3 | Average Tumor Size (mm3) ± SEM on Day 5 ([3]; 4 mg/kg): 61.8 ± 5.2 mm3 | Average Tumor Size (mm3) ± SEM on Day 8 ([3]; 4 mg/kg): 45.8 ± 9.8 mm3 | Average Tumor Size (mm3) ± SEM on Day 15 ([3]; 4 mg/kg): 0 ± 0 mm3 | Average Tumor Size (mm3) ± SEM on Day 19 ([3]; 4 mg/kg): 0 ± 0 mm3 | Average Tumor Size (mm3) ± SEM on Day 22 ([3]; 4 mg/kg): 0 ± 0 mm3 | Average Tumor Size (mm3) ± SEM on Day 27 ([3]; 4 mg/kg): 0 ± 0 mm3 | Average Tumor Size (mm3) ± SEM on Day 30 ([3]; 4 mg/kg): 0 ± 0 mm3 | Average Tumor Size (mm3) ± SEM on Day 35 ([3]; 4 mg/kg): 0 ± 0 mm3 | Average Tumor Size (mm3) ± SEM on Day 40 ([3]; 4 mg/kg): 0 ± 0 mm3 | Average Tumor Size (mm3) ± SEM on Day 55 ([3]; 4 mg/kg): 0 ± 0 mm3
